Here are results for one compound from US20180346731A1, “Formation of Stable Pyranoanthocyanins, and Uses Thereof as Sources of Natural Color” (Ohio State Innovation Foundation, priority 2017, published 2018).

Assay type in all cases: physicochemical
The nature of series [1]: UV-Vis absorbance loss and first-order bleaching kinetics of pigment solutions with ascorbic acid (pH 3.0 citrate buffer, 25° C., dark). The following applies: for K (reaction rate, first-order) / t1/2: 25° C. dark. As for the experimental part: The semi-purified chokeberry extract, the isolated cyanidin-3-galactoside, and the purified 5-carboxypyranocyanidin-3-galactoside were diluted in pH 3.0 citrate buffer (0.1 M adjusted with HCl) until an absorbance of 1.0 at their respective λmax was reached. Levels of AA of 250, 500, and 1000 mg/L were added using a concentrated ascorbic acid stock solution, and a control consisting of each pigment with the absence of AA was maintained. The control consisted of the pigment in the buffer in the absence of AA. An additional test was performed with the same model juice using hydrogen peroxide, a known degradation product of AA. To determine if AA bleaching was due to formation of H2O2, direct addition of it was investigated. In place of added AA, a 62.2 μL of a 0.3% peroxide solution was added to match the molar equivalency of the 500 mg/L AA level, which was 2.84 mM. All samples were brought to the same final volume with additional citrate buffer. […] Samples were stored in the dark at 25° C. in an incubator. UV-Vis spectrophotometry, colorimetry, and HPLC analyses were conducted over a 5 day period following the addition of ascorbic acid or hydrogen peroxide. UV-Vis spectral data was collected every hour for the first 8 hours, and then at 12 hr, and daily from that point on for 5 days. […] HPLC analyses were conducted on days 0, 1, 3, and 5. All treatments were run in triplicate. A SpectraMax 190 Microplate Reader (Molecular Devices, Sunnyvale, Calif., U.S.) with a 96-well plate (poly-D-lysine coated polystyrene) were used for the evaluation of absorbance from 380-700 nm, 1 nm intervals. Aliquots (200 uL) of samples were loaded into individual wells, and a blank consisted of the same citrate buffer used. Because of the rapid nature of AA-induced color loss, degradation kinetics were evaluated in terms of change in maximum absorbance at the original λmax over time. Bleaching is a first-order reaction, typical of ACN degradation, and was modeled as such in determining the reaction rate and half-life. The decrease in maximum absorbance correlated with an increase in lightness (L*) as well as the decrease in chroma (c*). The reduction in maximum absorbance did closely follow first-order kinetics for chokeberry extract and cyanidin-3-galactoside but slightly deviated for 5-carboxypyranocyanidin-3-galactoside. […] The kinetics results for each pigment and AA level can be found in Table 3 below.

The nature of series [2]: Anthocyanin survival of control treatments at pH 2.5 (uHPLC AUC 500-520 nm). Particulars: pH 2.5 acidified water, no pyruvic acid, 25° C., day 31. As for the experimental part:
FIG. 10: Pyranoanthocyanin yield for anthocyanins (500 μM) subjected to pyruvic acid treatment (×100 M ratio) and anthocyanin survival of control treatments at pH 2.5 acidified water at day 7, 14, and 31. Yield defined as (AUC500-520 nm of PACN at tn/AUC500-520 nm of ACN @t0)*100. Survival defined as (AUC500-520 nm of ACN at tn/AUC500-520 nm of ACN @ t0)*100. Values shown are means (n=3) and bars represent standard deviation.
A uHPLC system (Shimadzu Nexera-i LC-2040C, Maryland, U.S.) coupled with tandem MS (Shimadzu LCMS-8040, Maryland, U.S.) was used in evaluating initial anthocyanin purity and monitoring changes in anthocyanins with and without pyruvic acid treatment over time. A 0.4 mL/min flow rate was used on a Pinnacle DB (Restek Corporation, Bellefonte, Pa.) C18 Column (1.9 μm particle size, 50×2.1 mm length). The column oven was set at 40° C. The following gradient of solvent A (4.5% formic acid) and B (100% acetonitrile) was used: 0% B for the first minute, ramped to 15% B by 10 min. This method was effective for separation of the formed pyranoanthocyanin from anthocyanin for all isolates except cy3rut which coeluted with the formed pyranoanthocyanin. This was observed through MS-MS data. […]
Quantification of pigments was conducted on day 0, 3, 7, 14, and 31 using a standard curve of cyanidin-3-glucoside (Sigma Aldrich, St. Louis, Mo., U.S.) run under the same conditions used for isolates. Molar absorptivities of anthocyanins and carboxypyranoanthocyanidins have been reported as being relatively similar and were thought to provide a basis of confidence in using AUC500-520 nm as a quantitative measure of pyranoanthocyanin yield.
Prior to dilution, the concentrations of the isolated pigment extracts were determined by the pH differential method for subsequent dilution to known concentrations. The isolates were then diluted to 500 μM (expressed as Cyanidin-3-glucoside equivalents) in pH 2.5 deionized water (previously adjusted with HCl) which contained 0.1% potassium sorbate (w/v) and 0.1% sodium benzoate (w/v) to function as preservative agents during storage. […]

Series [3] in a line: Colorimetry (CIEL*c*h*, ΔE2000) of anthocyanin isolates treated with pyruvic acid, 31 days storage. The following applies: day 0 vs day 31, Delta E2000. As for the experimental part:
Prior to dilution, the concentrations of the isolated pigment extracts were determined by the pH differential method for subsequent dilution to known concentrations. The isolates were then diluted to 500 μM (expressed as Cyanidin-3-glucoside equivalents) in pH 2.5 deionized water (previously adjusted with HCl) which contained 0.1% potassium sorbate (w/v) and 0.1% sodium benzoate (w/v) to function as preservative agents during storage. A pH of 2.5 was selected as a compromise of several variables: the flavylium form was predominant, the effect of pKh was minimized, and it is a relevant pH for wines. It has been reported that the pKh's of cy3 gal, cy3xylgal, and cy3xylglugal ranges from 3.01 to 3.26. Working at pH 2.5 largely avoided the effect of different equilibrium forms while also maintaining a pH that is similar to that of wines where these compounds are commonly formed. Control samples of each isolate were prepared and contained no pyruvic acid. For treatments containing pyruvic acid, a previously diluted pyruvic acid standard (pyruvic acid in the same pH 2.5 water containing preservatives) was added to obtain concentrations 100× the molar ratio of anthocyanins (50 mM of pyruvic acid). All treatments were brought to the same final volume by the addition of more pH 2.5 water. Samples were filtered through a 0.2 μm membrane into 1.5 mL glass HPLC vials. Vials were capped and stored in an incubator in the dark at 25° C. for a 31 day duration (Fisher Scientific, Waltham, Mass., U.S.). All treatments were prepared in triplicate.
Colorimetric data of samples was calculated from spectra of samples collected from the plate reader with ColorBySpectra. Absorbance data was obtained and conversion to color values was achieved using the following settings: regular transmission, D65 illuminant, and 10° observer angle. Values reported are in the CIEL*c*h* scale. After storage for 31 days, the mathematical differences in color (ΔE) were calculated according to the CIE-L*a*b* Delta E2000 equation. Colorimetric data of the samples containing pyruvic acid was used to correlate with pyranoanthocyanins formation. Spectral absorbance data of the peaks of the anthocyanins and their respective pyranoanthocyanins were also collected from the PDA during uHPLC analyses and converted to colorimetric data using ColorBySpectra under the settings described above. The spectra was obtained from the time of elution of the target compound and then standardized to an absorbance of 1.0 at λvis-max.

Turning to `OC[C@H]1O[C@@H](Oc2cc3c(O)cc(O)cc3[o+]c2-c2ccc(O)c(O)c2)[C@H](O)[C@@H](O)[C@H]1O` [Cyanidin-3-galactoside, cyanidin-3-galactoside], the “K (reaction rate, first-order)” value in series [1] (250 mg/L AA) turned out to be 3.18E−02; in series [1] (500 mg/L AA) it was 5.90E−02; in series [1] (1000 mg/L AA), 8.64E−02; in series [1] (Control, no AA, absorbance at λvis-max), 1.27E−03. Moreover, the t1/2 in series [1] (250 mg/L AA) amounted to 22 h; in series [1] (500 mg/L AA) it was 12 h; in series [1] (1000 mg/L AA), 8 h; in series [1] (Control, no AA), 546 h. In addition, in series [1] (500 mg/L AA, 5 day period), the “reduction in maximum absorbance” value amounted to 88%. Moreover, the “λmax after hypsochromic change” value in series [1] (500 mg/L AA, after treatment) is given as 509 nm. In addition, the “λmax before hypsochromic change” value in series [1] (500 mg/L AA, start) is listed as 511 nm. The “slope of reaction rate vs AA level (susceptibility to AA), relative to 5-carboxypyranocyanidin-3-galactoside” value in series [1] (AA 0-1000 mg/L) was 8.2 ×. Also, in series [1] (AA 0-1000 mg/L), the “slope of reaction rate vs AA level, relative to chokeberry extract” value is given as 3.1 ×. Also, the “time before a significant difference (p<0.05) in maximum absorbance from time 0” value in series [1] (all levels of AA added) is 2 h. For the same compound, the “anthocyanin survival of control treatment” value in series [2] was 84%. For the same compound, the “total color change (ΔE)” value in series [3] was determined as 8.2.
